# Tests used:
# [1] = system: recombinant protein USTB-05-C (MlrC); assay: in vitro; settings: Sphingopyxis sp. USTB-05, isolated enzyme, pH 7.3
# [2] = system: recombinant protein USTB-05-C (MlrC); settings: pH 7.3
structure (smiles),measurement,setting,value
C/C=C(/C(=O)N[C@@H](C(=O)O)[C@H](C)C(=O)N[C@@H](CCCNC(=N)N)C(=O)O)N(C)C(=O)CC[C@@H](NC(=O)[C@@H](C)[C@@H](N)/C=C/C(C)=C/[C@H](C)[C@H](Cc1ccccc1)OC)C(=O)O [linear NOD],metabolised at 4 h,[1],~98.7%
same,time to complete removal (degradation) of linear NOD by purified MlrC,[2],≤ 6 h
